In brackets after ≈: the same amount, converted by molar mass. Like-named read-outs stand apart in the source and are kept apart here.
Columns and labels:
S. aureus ATCC 13709 = assay: MIC, S. aureus ATCC 13709; type: cell-based; conditions: for MIC: Staphylococcus aureus
E. coli ATCC 25922 = assay: MIC, E. coli ATCC 25922; type: cell-based; conditions: for MIC: Escherichia coli
[1] = S. aureus, Alamar Blue read after overnight incubation at 35° C.
[2] = E. coli, Alamar Blue read after overnight incubation at 35° C.
[3] = ATCC13709, Table 16, new R4 substituents, read-out: SA MIC
[4] = ATCC25922, Table 16, new R4 substituents, EC8 not defined, read-out: EC8 MIC
[5] = ATCC13709, S. aureus, Alamar Blue read after overnight incubation at 35° C., read-out: MIC Sa
[6] = ATCC25922, E. coli, Alamar Blue read after overnight incubation at 35° C., read-out: MIC Ec

CNc1cc(F)cc2c1[nH]c1nc(Oc3cnc(C)nc3)nc(N3CC4CC(N)C3C4)c12 (centres unmarked) [Compound 4.148]
MIC Sa (S. aureus ATCC 13709; [1]): ≤0.5 µg/mL
MIC Ec (E. coli ATCC 25922; [2]): 4 µg/mL (≈ 9.21 µM)

CNc1cc(F)cc2c1[nH]c1nc(Nc3cnc4ccnn4c3)nc(N3C[C@H]4CC3C[C@H]4N)c12
SA MIC (S. aureus ATCC 13709; Table 13, L = NH): ≤ 0.5 µg/mL
EC MIC (E. coli ATCC 25922; Table 13, L = NH): ≤ 0.5 µg/mL

CNc1cc(F)c(Cl)c2c1[nH]c1nc(Oc3cnc4ccnn4c3)nc(N3C[C@H]4C[C@@H](N)[C@H]4C3)c12 [Compound 10.86]
MIC Sa (S. aureus ATCC 13709; Table 18, Sa): ≤ 0.5 µg/mL
MIC Ec (E. coli ATCC 25922; Table 18, Ec): 0.25 µg/mL (≈ 0.506 µM)

C=Cc1cc(F)cc2c1[nH]c1nc(Oc3cnc(C)nc3)nc(N3C[C@H]4C[C@@H]3C[C@H]4N)c12 [Compound 10.84]
MIC Sa (S. aureus ATCC 13709; Table 18, Sa): ≤ 0.5 µg/mL
MIC Ec (E. coli ATCC 25922; Table 18, Ec): ≤ 0.5 µg/mL

CNc1cc(F)cc2c1[nH]c1nc(Oc3ccc(C#N)nc3)nc(N3CC4CC(N)C4C3)c12 (centres unmarked) [Compound 4.332]
MIC Sa (S. aureus ATCC 13709; [1]): ≤0.5 µg/mL
MIC Ec (E. coli ATCC 25922; [2]): ≤0.5 µg/mL

CNc1cc(F)cc2c1[nH]c1nc(Oc3cnc(C)nc3)nc(N3CC(N)C(C(=O)NCCN4CCOCC4)C3)c12 (centres unmarked) [drawing 1823]
MIC (S. aureus ATCC 13709; [3]): 16 µg/mL (≈ 28.3 µM)
MIC (E. coli ATCC 25922; [4]): > 16 µg/mL

CNc1cc(F)cc2c1[nH]c1nc(Oc3cnc(C)nc3)nc(N3CC(N)C(C(=O)NCC(C)O)C3)c12 (centres unmarked) [drawing 1822]
MIC (S. aureus ATCC 13709; [3]): 8 µg/mL (≈ 15.7 µM)
MIC (E. coli ATCC 25922; [4]): > 16 µg/mL

COc1cccc2c1[nH]c1nc(Sc3cnc4nccnc4c3)nc(N3CC4C(N)C4C3)c12 (centres unmarked) [Compound 1.76]
MIC (S. aureus ATCC 13709; [5]): 1 µg/mL (≈ 2.19 µM)
MIC (E. coli ATCC 25922; [6]): > 64 µg/mL

CNc1cc(F)c(F)c2c1[nH]c1nc(Oc3cnc(C(C)O)nc3)nc(N3CCC4(CCCC4N)C3)c12 (centres unmarked) [Compound 10.112]
MIC Sa (S. aureus ATCC 13709; Table 18, Sa): ≤ 0.5 µg/mL
MIC Ec (E. coli ATCC 25922; Table 18, Ec): ≤ 0.5 µg/mL

CNc1cc(F)cc2c1[nH]c1nc(Oc3cncc(C(N)=O)c3)nc(N3CC4C(N)C4C3)c12 (centres unmarked) [Compound 4.237]
MIC Sa (S. aureus ATCC 13709; [1]): ≤0.5 µg/mL
MIC Ec (E. coli ATCC 25922; [2]): 2 µg/mL (≈ 4.46 µM)

CNc1cc(F)cc2c1[nH]c1nc(Oc3cnn4ccnc4c3)nc(N3C[C@H]4C[C@@H]3C[C@H]4N)c12 [Compound 10.62]
MIC Sa (S. aureus ATCC 13709; Table 18, Sa): ≤ 0.5 µg/mL
MIC Ec (E. coli ATCC 25922; Table 18, Ec): ≤ 0.5 µg/mL

CNc1cccc2c1[nH]c1nc(Oc3cncc(C#N)c3)cc(N3CCN(CCN)CC3)c12 [Compound 3.55]
MIC (S. aureus ATCC 13709; [5]): 64 µg/mL (≈ 145 µM)
MIC (E. coli ATCC 25922; [6]): > 64 µg/mL

CNc1cc(F)cc2c1[nH]c1nc(Oc3cnc(C4CC4)nc3)nc(N3CC4CCC(N)C4C3)c12 (centres unmarked) [Compound 4.251]
MIC Sa (S. aureus ATCC 13709; [1]): ≤0.5 µg/mL
MIC Ec (E. coli ATCC 25922; [2]): ≤0.5 µg/mL

CNc1cc(F)cc2c1[nH]c1nc(Oc3cnc(C)nc3)nc(N3CC(N)C(C(=O)OC)C3)c12 (centres unmarked) [Compound 4.437]
MIC (S. aureus ATCC 13709; [5]): ≤ 0.5 µg/mL
MIC (E. coli ATCC 25922; [6]): 1 µg/mL (≈ 2.14 µM)

CCc1cc(F)cc2c1[nH]c1nc(Oc3cnc(C)nc3)nc(N3CC(N)C4(CC4)C3)c12 (centres unmarked) [Compound 2.3]
MIC Sa (S. aureus ATCC 13709; [1]): 1 µg/mL (≈ 2.31 µM)
MIC Ec (E. coli ATCC 25922; [2]): 16 µg/mL (≈ 36.9 µM)

CNc1cc(F)cc2c1[nH]c1nc(Oc3cncc(-c4nnnn4C)c3)nc(N3CC4C(N)C4C3)c12 (centres unmarked) [Compound 4.168]
MIC Sa (S. aureus ATCC 13709; [1]): ≤0.5 µg/mL
MIC Ec (E. coli ATCC 25922; [2]): 2 µg/mL (≈ 4.1 µM)

Cc1ncc(Oc2nc(N3C[C@H](N)C4(CC4)C3)c3c(n2)[nH]c2c(N(C)C(=O)CN)cc(F)cc23)cn1 [Compound 4.426]
MIC (S. aureus ATCC 13709; [5]): 8 µg/mL (≈ 16.3 µM)
MIC (E. coli ATCC 25922; [6]): > 16 µg/mL

CNc1cc(F)cc2c1[nH]c1nc(Oc3cnc(SC)nc3)nc(N3CCC(N)C3)c12 (centres unmarked) [Compound 4.199]
MIC Sa (S. aureus ATCC 13709; [1]): ≤0.5 µg/mL
MIC Ec (E. coli ATCC 25922; [2]): ≤0.5 µg/mL

CNc1cc(F)cc2c1[nH]c1nc(Oc3cncc(Cl)c3)nc(N3CC(N)C4(CC4)C3)c12 (centres unmarked) [Compound 4.273]
MIC Sa (S. aureus ATCC 13709; [1]): ≤0.5 µg/mL
MIC Ec (E. coli ATCC 25922; [2]): 2 µg/mL (≈ 4.41 µM)

CNc1cc(F)c(F)c2c1[nH]c1nc(Oc3cnc(C(C)O)nc3)nc(N3CC4(CC[C@]4(C)N)C3)c12 (some centres unmarked) [Compound 10.81]
MIC Sa (S. aureus ATCC 13709; Table 18, Sa): ≤ 0.5 µg/mL
MIC Ec (E. coli ATCC 25922; Table 18, Ec): 0.5 µg/mL (≈ 1.01 µM)

CNc1cccc2c1[nH]c1nc(Oc3cncc(C#N)c3)cc(N3CCC4(CC4N)C3)c12 (centres unmarked) [Compound 3.40]
MIC (S. aureus ATCC 13709; [5]): ≤ 0.5 µg/mL
MIC (E. coli ATCC 25922; [6]): 1 µg/mL (≈ 2.35 µM)

CNc1cc(F)cc2c1[nH]c1nc(Oc3cnc(C)nc3)nc(N3C[C@H](N)C[C@@H]3C)c12 [Compound 4.115]
MIC Sa (S. aureus ATCC 13709; [1]): 1 µg/mL (≈ 2.37 µM)
MIC Ec (E. coli ATCC 25922; [2]): 8 µg/mL (≈ 18.9 µM)
